Data: patent US12268683B2, “Compounds and methods for synergistic activation of M channels” (THE REGENTS OF THE UNIVERSITY OF CALIFORNIA, priority 2018, dated 2025)

Columns and labels:
[1] = target: KCNQ2 (Homo sapiens, UniProt O43526); assay: [3H]GABA competition binding to oocytes expressing KCNQ2; conditions: 100 μM, 10 μM 3H-GABA
Method: Each group of oocytes was placed in a round-bottomed, 15-ml falcon tube, washed with ND96, and then resuspended in ND96 containing 10 μM γ-[2,3-^3H(N)]-aminobutyric acid (^3H-GABA) (Perkin Elmer, Waltham, Mass.) at 25-40 Ci/mMol specific activity either alone, or with 100 μM 2FPG or 100 μM 3FMSG, for a 30 minute incubation at room temperature. Oocytes were then washed four times in 16° C. ND96, transferred to individual wells in a 96 well plate and lysed in 0.2% SDS in ND96. Each oocyte lysate was transferred to a scintillation vial containing 5 ml Cytoscint scintillation cocktail fluid (MP Biomedicals, Santa Ana, Calif.). Vials were capped, shaken, and then allowed to sit at room temperature for at least 30 min before scintillation counting in a Beckmann Coulter LS6500 liquid scintillation counter.

[2] = target: KCNQ1/KCNE1 (Homo sapiens, UniProt P51787); assay: TEVC of KCNQ1/KCNE1 channels; format: cell-based
Text: As previously described (12), we generated cRNA transcripts encoding human KCNA1, KCNE1, KCNE2, KCNE3, KCNQ1, KCNQ2, KCNQ3, KCNQ4 or KCNQ5 by in vitro transcription using the T7 polymerase mMessage mMachine kit (Thermo Fisher Scientific), after vector linearization, from cDNA sub-cloned into plasmids incorporating Xenopus laevis β-globin 5′ and 3′ UTRs flanking the coding region to enhance translation and cRNA stability. We quantified cRNA by spectrophotometry. We generated mutant KCNQ2 and KCNQ3 cDNAs by site-directed mutagenesis with a QuikChange kit (Stratagene, San Diego, Calif.) and prepared the cRNAs as above. We injected defolliculated stage V and VI Xenopus laevis oocytes (Ecocyte Bioscience, Austin, Tex. and Xenoocyte, Dexter, Mich., US) with KCNE and/or KCNQ cRNAs (5-20 ng). […]
We performed TEVC at room temperature using an OC-725C amplifier (Warner Instruments, Hamden, Conn.) and pClamp10 software (Molecular Devices, Sunnyvale, Calif.) 2-5 days after cRNA injection as described in the section above. […] We recorded currents in response to voltage pulses between −120 or −80 mV and +40 mV at 20 mV intervals from a holding potential of −80 mV, to yield current-voltage relationships, current magnitude, and for quantifying activation rate. We analyzed data using Clampfit (Molecular Devices) and Graphpad Prism software (GraphPad, San Diego, Calif., USA); values are stated as mean±SEM. […]

[3] = target: KCNA1 (Homo sapiens, UniProt Q09470); assay: TEVC of KCNA1 expressed in Xenopus oocytes; format: cell-based
Text: cRNA transcripts encoding human KCNA1, KCNQ1, KCNQ2, KCNQ3, KCNQ4, or KCNQ5 were generated by in vitro transcription using the T7 polymerase message machine kit (Thermo Fisher Scientific), after vector linearization, from cDNA sub-cloned into plasmids incorporating X. laevis β-globin 5′ and 3′ UTRs flanking the coding region to enhance translation and cRNA stability. cRNA was quantified by spectrophotometry. Mutant cDNAs were generated by site-directed mutagenesis using a QuikChange kit according to manufacturer's protocol (Stratagene, San Diego, Calif.) and corresponding cRNAs prepared as above. Defolliculated stage V and VI X. laevis oocytes (Ecocyte Bioscience, Austin, Tex.) were injected with Kv channel a subunit cRNAs (10 ng total per oocyte). […]
TEVC recording was performed at room temperature with an OC-725C amplifier (Warner Instruments, Hamden, Conn.) and pClamp10.2 software (Molecular Devices, Sunnyvale, Calif.) 3-5 days after cRNA injection as described in the section above. […] Currents were recorded in response to pulses between −80 and +40 mV at 20 mV intervals, or a single pulse to +40 mV, from a holding potential of −80 mV, to yield current-voltage relationships, current magnitude, and for quantifying activation rate. […]

[4] = rats fed Mallotus philippensis extract; cited from earlier work

Sequence of KCNA1 (Q09470 whole entry): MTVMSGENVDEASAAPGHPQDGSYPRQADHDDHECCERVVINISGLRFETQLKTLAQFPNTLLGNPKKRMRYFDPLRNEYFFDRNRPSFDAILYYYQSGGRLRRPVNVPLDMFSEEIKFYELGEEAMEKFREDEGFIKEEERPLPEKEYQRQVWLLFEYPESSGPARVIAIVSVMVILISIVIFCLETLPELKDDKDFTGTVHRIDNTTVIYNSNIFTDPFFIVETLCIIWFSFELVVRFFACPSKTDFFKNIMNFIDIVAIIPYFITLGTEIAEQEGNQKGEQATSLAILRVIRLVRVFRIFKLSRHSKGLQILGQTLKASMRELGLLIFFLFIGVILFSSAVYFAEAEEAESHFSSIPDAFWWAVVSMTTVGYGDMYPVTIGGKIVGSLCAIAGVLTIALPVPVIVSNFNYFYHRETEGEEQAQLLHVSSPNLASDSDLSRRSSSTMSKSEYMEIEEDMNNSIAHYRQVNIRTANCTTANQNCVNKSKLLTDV

## CS(=O)(=O)N(CC(=O)O)c1cccc(F)c1 [3FMSG]
[1]
  competition with [3H]GABA binding to KCNQ2: able to compete out GABA binding

## CCCCCCCCC/C=C/C=O [(E)-2-dodecenal]
[2]
  sensitivity of KCNQ1-KCNE1, fold less sensitive than KCNQ1: > twofold
[2]; read-out: EC50 of KCNQ1/KCNE1 activation
  EC50: 260 ± 100 nM

## CC(=O)c1c(O)c(C)c(O)c(Cc2c(O)c3c(c(C(=O)/C=C/c4ccccc4)c2O)OC(C)(C)C=C3)c1O [MTX, mallotoxin]
[3]
  effect on KCNA1 (in words): no effect
[4]
  oral bioavailability: > 20%
  plasma concentration: exceeded 2 μg/ml
